Reference: patent US20220372040A1, “METTL3 MODULATORS” (Accent Therapeutics, Inc., priority 2020, published 2022)

How the values were obtained:
Assay type in all cases: biochemical
[1] = target: METTL3/METTL14 (Homo sapiens, UniProt Q86U44); assay: METTL3-14 standard enzyme assay (3H-SAM flashplate scintillation); details: METTL3/METTL14 2.5 nM, RNA 100 nM, 3H-SAM 100 nM, 30 min
Summary of the method: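 Radiometric methylation readout: biotinylated RNA substrate UCUGGACUAAA and 3H-SAM, each 100 nM final, reacted 30 min at ambient temperature with 2.5 nM enzyme complex after 5 min compound preincubation (HEPES pH 7.5 buffer, KCl, MgCl2, DTT). Excess unlabelled SAM (15 μM) stopped reactions before streptavidin flashplate capture.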

[2] = target: PRMT5-MEP50 (Homo sapiens, UniProt O14744); assay: PRMT5 assay (3H-SAM flashplate scintillation); details: PRMT5-MEP50 2.5 nM, histone H4 peptide 100 nM, 3H-SAM 250 nM, 60 min
Summary of the method: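 Radiometric methyltransferase read-out: after 60 min reaction, excess unlabelled SAM (15 μM) stops turnover and biotinylated H4 peptide (100 nM) carrying 3H-methyl from 250 nM 3H-SAM is captured on streptavidin flashplates (2 h, 25° C) for scintillation counting. Enzyme, 2.5 nM PRMT5-MEP50, was preincubated 5 min with compound in pH 8.0 Tris buffer with DTT and Tween.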

[3] = target: T1, METTL16 (Homo sapiens, UniProt Q86W50); assay: METTL16 assay (3H-SAM flashplate scintillation); details: METTL16 100 nM, RNA 50 nM, 3H-SAM 200 nM, SAM 800 nM, 20 min
T1 sequence (Q86W50 1-562): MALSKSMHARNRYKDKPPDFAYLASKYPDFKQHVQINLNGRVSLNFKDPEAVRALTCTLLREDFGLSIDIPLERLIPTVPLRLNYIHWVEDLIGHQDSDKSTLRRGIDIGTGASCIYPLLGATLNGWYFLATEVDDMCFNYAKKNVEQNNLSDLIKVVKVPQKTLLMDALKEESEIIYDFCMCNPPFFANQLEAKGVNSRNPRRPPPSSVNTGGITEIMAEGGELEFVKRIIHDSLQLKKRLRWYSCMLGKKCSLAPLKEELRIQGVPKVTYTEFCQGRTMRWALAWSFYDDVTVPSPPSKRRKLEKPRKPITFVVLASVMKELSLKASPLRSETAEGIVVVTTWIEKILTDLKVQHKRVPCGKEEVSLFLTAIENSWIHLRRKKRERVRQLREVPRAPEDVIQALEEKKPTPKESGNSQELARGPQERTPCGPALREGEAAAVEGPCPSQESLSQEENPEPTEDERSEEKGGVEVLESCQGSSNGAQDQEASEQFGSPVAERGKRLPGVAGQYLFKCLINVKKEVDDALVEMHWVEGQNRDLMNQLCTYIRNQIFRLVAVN
Protocol: (§1) Assays were performed in a 25 μl-volume in 384-well V-bottom polypropylene microplates (Greiner Bio-One, cat. No. 781280) at ambient temperature. Optimized 1× assay buffer was 20 mM HEPES pH 7.5, 50 mM KCl, 1 mM DTT, 0.01% Tween, 0.01% BSG, 0.004 U/μl RNAseOUT (cat. No. 10777019, ThermoFisher Scientific, Waltham, Mass.). For compound screening METTL16 (final concentration, f.c.=100 nM) was added using a Multidrop Combi (ThermoFisher Scientific, Waltham, Mass.) and preincubated for 5 min. Reactions were started by adding 3′ biotinylated RNA ([…]-biotin) (f.c.=50 nM), 3H-SAM (f.c.=200 nM) and non-radiolabeled SAM (f.c.=800 nM) substrates. Reactions proceeded for 20 minutes and were quenched with excess non-radioactive SAM (f.c.=100 μM). The reactions were then transferred to streptavidin-coated flashplates and incubated for 2 hours at 25° C. Following two washing cycles with 0.1% Tween-20, the plates were sealed and read on a TopCount (PerkinElmer, Waltham, Mass.) plate-based scintillation counter. For determination of kinetic parameters, reaction times were optimized so that measurements were taken during the initial velocity phase of the reaction.

[4] = target: METTL1/WDR4 (Homo sapiens, UniProt Q9UBP6); assay: METTL1 assay (3H-SAM flashplate scintillation); details: METTL1/WDR4 6.25 nM, RNA 25 nM, 3H-SAM 60 nM, 20 min; read-out: METTL1 IC50
Protocol: as §1, with “KCl, 250 μM MgCl2,” for “KCl,”, “METTL1/WDR4” for “METTL16”, “f.c.=6.25” for “f.c.=100”, “(f.c.=25” for “(f.c.=50 nM), 3H-SAM (f.c.=200”, “3H-SAM (f.c.=60” for “non-radiolabeled SAM (f.c.=800”, “(f.c.=15” for “(f.c.=100”

Sequence of PRMT5-MEP50 (O14744 whole entry): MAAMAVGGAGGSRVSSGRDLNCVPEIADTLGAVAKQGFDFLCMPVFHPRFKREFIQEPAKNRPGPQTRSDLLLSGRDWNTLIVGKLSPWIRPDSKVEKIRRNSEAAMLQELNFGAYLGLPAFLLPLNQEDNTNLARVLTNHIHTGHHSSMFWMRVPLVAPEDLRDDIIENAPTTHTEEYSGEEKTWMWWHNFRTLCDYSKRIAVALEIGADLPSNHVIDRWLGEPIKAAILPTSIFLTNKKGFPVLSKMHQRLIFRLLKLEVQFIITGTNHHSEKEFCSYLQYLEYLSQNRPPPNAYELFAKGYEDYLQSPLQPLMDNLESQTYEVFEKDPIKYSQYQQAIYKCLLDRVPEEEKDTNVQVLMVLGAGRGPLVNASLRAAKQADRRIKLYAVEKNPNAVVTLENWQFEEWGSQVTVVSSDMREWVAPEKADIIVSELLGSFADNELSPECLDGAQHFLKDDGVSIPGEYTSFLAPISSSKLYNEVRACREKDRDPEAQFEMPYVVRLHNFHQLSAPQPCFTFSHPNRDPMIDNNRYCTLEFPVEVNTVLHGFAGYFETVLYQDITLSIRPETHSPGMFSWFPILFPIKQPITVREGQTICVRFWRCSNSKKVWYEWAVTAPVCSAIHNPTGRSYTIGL
Sequence of PRMT5-MEP50 (Q9BQA1 whole entry partner): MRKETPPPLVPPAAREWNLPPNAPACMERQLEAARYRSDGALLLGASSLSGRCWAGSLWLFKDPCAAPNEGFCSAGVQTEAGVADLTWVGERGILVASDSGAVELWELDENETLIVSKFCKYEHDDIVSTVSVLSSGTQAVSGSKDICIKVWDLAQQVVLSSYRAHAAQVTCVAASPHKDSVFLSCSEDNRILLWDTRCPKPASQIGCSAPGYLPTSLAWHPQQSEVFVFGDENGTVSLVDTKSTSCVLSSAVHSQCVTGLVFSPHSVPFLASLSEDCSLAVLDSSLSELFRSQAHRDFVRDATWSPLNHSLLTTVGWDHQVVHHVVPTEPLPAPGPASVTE
Sequence of METTL3/METTL14 (Q86U44 whole entry, species assumed): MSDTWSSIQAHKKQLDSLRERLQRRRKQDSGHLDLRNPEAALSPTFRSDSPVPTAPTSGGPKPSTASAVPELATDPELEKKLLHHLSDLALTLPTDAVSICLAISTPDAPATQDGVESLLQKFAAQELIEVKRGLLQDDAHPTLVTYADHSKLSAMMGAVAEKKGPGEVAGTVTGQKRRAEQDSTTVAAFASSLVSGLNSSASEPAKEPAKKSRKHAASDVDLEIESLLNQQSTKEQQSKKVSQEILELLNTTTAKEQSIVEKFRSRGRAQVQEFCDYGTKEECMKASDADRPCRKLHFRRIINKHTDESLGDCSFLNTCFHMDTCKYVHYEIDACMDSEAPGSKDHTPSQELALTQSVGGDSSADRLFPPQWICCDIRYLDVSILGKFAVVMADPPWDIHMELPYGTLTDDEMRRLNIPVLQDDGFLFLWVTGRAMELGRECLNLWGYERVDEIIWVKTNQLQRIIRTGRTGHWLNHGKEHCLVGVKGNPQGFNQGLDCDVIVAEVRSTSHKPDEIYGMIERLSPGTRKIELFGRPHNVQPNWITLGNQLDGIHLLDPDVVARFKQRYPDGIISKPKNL
Sequence of METTL3/METTL14 (Q9HCE5 whole entry partner, species assumed): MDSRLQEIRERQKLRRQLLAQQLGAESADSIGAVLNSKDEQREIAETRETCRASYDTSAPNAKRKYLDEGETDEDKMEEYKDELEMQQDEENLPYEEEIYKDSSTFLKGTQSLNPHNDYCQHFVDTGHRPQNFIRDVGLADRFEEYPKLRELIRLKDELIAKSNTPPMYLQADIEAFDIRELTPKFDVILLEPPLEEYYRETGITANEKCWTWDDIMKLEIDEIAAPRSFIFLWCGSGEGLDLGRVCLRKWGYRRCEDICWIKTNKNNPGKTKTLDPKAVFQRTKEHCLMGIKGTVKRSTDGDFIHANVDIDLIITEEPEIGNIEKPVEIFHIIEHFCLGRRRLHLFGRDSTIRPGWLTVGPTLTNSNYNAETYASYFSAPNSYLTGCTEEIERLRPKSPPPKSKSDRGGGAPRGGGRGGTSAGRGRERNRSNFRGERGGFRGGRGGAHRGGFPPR
Sequence of METTL1/WDR4 (Q9UBP6 whole entry, species assumed): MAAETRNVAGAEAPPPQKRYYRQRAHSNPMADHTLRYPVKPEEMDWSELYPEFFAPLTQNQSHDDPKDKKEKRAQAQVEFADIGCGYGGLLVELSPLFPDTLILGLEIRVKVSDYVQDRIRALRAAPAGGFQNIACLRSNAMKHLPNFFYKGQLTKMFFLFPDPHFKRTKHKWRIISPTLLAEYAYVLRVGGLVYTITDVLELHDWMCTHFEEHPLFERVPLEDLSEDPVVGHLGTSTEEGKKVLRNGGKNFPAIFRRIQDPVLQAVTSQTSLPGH
Sequence of METTL1/WDR4 (P57081 whole entry partner, species assumed): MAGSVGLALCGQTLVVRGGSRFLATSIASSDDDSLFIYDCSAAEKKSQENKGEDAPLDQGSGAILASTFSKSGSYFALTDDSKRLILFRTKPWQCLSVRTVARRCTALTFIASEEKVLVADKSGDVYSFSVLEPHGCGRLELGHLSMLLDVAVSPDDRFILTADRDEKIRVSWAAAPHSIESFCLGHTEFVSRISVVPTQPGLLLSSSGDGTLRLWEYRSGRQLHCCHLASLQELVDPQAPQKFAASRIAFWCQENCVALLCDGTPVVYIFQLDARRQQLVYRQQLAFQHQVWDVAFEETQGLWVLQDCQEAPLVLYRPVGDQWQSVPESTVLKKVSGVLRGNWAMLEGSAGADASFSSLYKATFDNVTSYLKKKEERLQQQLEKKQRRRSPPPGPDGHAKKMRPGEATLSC

SMILES	IC50 [1]	IC50 [2]	IC50 [3]	IC50 [4]
CNc1ccc2ccc(OCc3cc(-n4cc(Cl)c5c(N)ncnc54)cnc3N)cc2n1 [Compound I-28]	0.01 to 0.1 µM	> 1 µM	> 1 µM	> 1 µM
CNc1ccc2ccc(OCc3cccc(-n4cc(CCN(C)C)c5c(N)ncnc54)c3)cc2n1 [Compound I-32]	0.1 to 1 µM	> 1 µM	> 1 µM	> 1 µM
CNc1ccc2ccc(OCc3cncc(-n4cc(C5CCN(C)CC5)c5c(N)ncnc54)c3)cc2n1 [Compound I-33]	0.1 to 1 µM	> 1 µM	> 1 µM	> 1 µM
C=CC(=O)N(CCC(=O)O)c1nc(N)c2ccn(-c3cncc(COc4ccc5ccc(NC)nc5c4)c3)c2n1 [Compound I-41]	> 1 µM	> 1 µM	> 1 µM	
CNc1ccc2ccc(OCc3cccc(-n4cc(Br)c5c(N)ncnc54)c3)cc2n1 [Compound I-43]	0.01 to 0.1 µM	> 1 µM	> 1 µM	
CNc1ccc2ccc(OCc3cncc(-n4ccc5c(C)ncnc54)c3)cc2n1 [Compound I-44]	0.01 to 0.1 µM	> 1 µM	> 1 µM	
CNc1ccc2ccc(OCc3cncc(-n4ccc5c(N)nc(N(C)C)nc54)c3)cc2n1 [Compound I-49]	> 1 µM	> 1 µM	> 1 µM	
CNc1ccc2ccc(OCc3cncc(-n4ccc5c(N)nc(NC)nc54)c3)cc2n1 [Compound I-50]	> 1 µM	> 1 µM	> 1 µM	
CNc1ccc2ccc(CCc3cncc(-n4cc(Cl)c5c(N)ncnc54)c3)cc2n1 [Compound I-51]	0.01 to 0.1 µM	> 1 µM	> 1 µM	
Cc1cc(N)c2ccc(OCc3cncc(-n4cc(Cl)c5c(N)ncnc54)c3)cc2n1 [Compound I-53]	0.01 to 0.1 µM	> 1 µM	> 1 µM	
CNc1ccc2ccc(OCc3cncc(-n4ccc5c(N)nc(N)nc54)c3)cc2n1 [Compound I-56]	0.1 to 1 µM	> 1 µM	> 1 µM	
CNc1ccc2ccc(OCc3cncc(-n4cc(C5CCCC5)c5cncnc54)c3)cc2n1 [Compound I-57]	0.1 to 1 µM	> 1 µM	> 1 µM	
CNc1ccc2ccc(OCc3nnc(-n4cc(Cl)c5c(N)ncnc54)s3)cc2n1 [Compound I-62]	> 1 µM	0.01 to 0.1 µM	> 1 µM	> 1 µM
CNc1ccc2ccc(OCc3cc(-n4cc(Cl)c5c(N)ncnc54)ncn3)cc2n1 [Compound I-64]	> 1 µM	> 1 µM	> 1 µM	> 1 µM
Cc1cc(N)c2ccc(OCc3cccc(-n4cc(Cl)c5c(N)ncnc54)c3)cc2n1 [Compound I-65]	0.01 to 0.1 µM	> 1 µM	> 1 µM	> 1 µM
Cc1cc(N)c2ccc(OCc3cccc(-n4ccc5c(N)ncnc54)c3)cc2n1 [Compound I-66]	0.1 to 1 µM	> 1 µM	> 1 µM	> 1 µM

SMILES	IC50 [1]	IC50 [2]	IC50 [3]	IC50 [4]
Nc1ncnc2c1c(Cl)cn2-c1cccc(COc2ccc3ccc(NCC4CC4)nc3c2)c1 [Compound I-67]	0.1 to 1 µM	> 1 µM	> 1 µM	> 1 µM
CCc1ncc(-n2cc(Cl)c3c(N)ncnc32)cc1COc1ccc2ccc(NC)nc2c1 [Compound I-68]	0.01 to 0.1 µM	> 1 µM	> 1 µM	> 1 µM
CNc1ccc2ccc(CN(C)c3cccc(-n4cc(Br)c5c(N)ncnc54)c3)cc2n1 [Compound I-69]	> 1 µM	> 1 µM	> 1 µM	> 1 µM
CNc1ccc2ccc(OCc3cccc(-c4c[nH]c5c(N)ncnc45)c3)cc2n1 [Compound I-71]	0.01 to 0.1 µM	> 1 µM	> 1 µM	> 1 µM
CNc1ccc2ccc(CNc3cccc(-n4cc(Br)c5c(N)ncnc54)c3)cc2n1 [Compound I-72, 7-{[(3-{4-amino-5-bromo-7H-pyrrolo[2,3-d]pyrimidin-7-yl}phenyl)amino]methyl}-N-methylquinolin-2-amine]	0.1 to 1 µM	> 1 µM	> 1 µM	> 1 µM
CNc1ccc2ccc(OCc3cccc(-n4cc(C5CC5)c5c(N)ncnc54)c3)cc2n1 [Compound I-73]	0.01 to 0.1 µM	> 1 µM	> 1 µM	> 1 µM
CNc1ccc2ccc(OCc3cc(F)cc(-n4cc(Cl)c5c(N)ncnc54)c3)cc2n1 [Compound I-76]	0.01 to 0.1 µM	> 1 µM	> 1 µM	> 1 µM
Nc1ccc2ccc(OCc3cccc(-n4cc(Cl)c5c(N)ncnc54)c3)cc2n1 [Compound I-77]	> 1 µM	> 1 µM	> 1 µM	> 1 µM
CNc1ccc2ccc(OCc3cccc(-n4ccc5c(N)ncnc54)c3)cc2n1 [Compound I-78]	0.01 to 0.1 µM	> 1 µM	> 1 µM	> 1 µM
CNc1ccc2ccc(OCc3cccc(-n4cc(CC5CC5)c5c(N)ncnc54)c3)cc2n1 [Compound I-79]	0.01 to 0.1 µM	> 1 µM	> 1 µM	> 1 µM
CNc1ccc2ccc(OCc3cc(-n4cc(Cl)c5c(N)ncnc54)ccc3F)cc2n1 [Compound I-80]	0.01 to 0.1 µM	> 1 µM	> 1 µM	> 1 µM
CNc1ccc2ccc(OCc3cc(O)cc(-n4cc(Cl)c5c(N)ncnc54)c3)cc2n1 [Compound I-81]	0.01 to 0.1 µM	> 1 µM	> 1 µM	> 1 µM
CNc1ccc2ccc(OCc3cc(OC)cc(-n4cc(Cl)c5c(N)ncnc54)c3)cc2n1 [Compound I-82]	0.1 to 1 µM	> 1 µM	> 1 µM	
CNc1ccc2ccc(OCc3cc(-n4cc(Cl)c5c(N)ncnc54)ccc3OC)cc2n1 [Compound I-83]	> 1 µM	> 1 µM	> 1 µM	
CNc1ccc2ccc(OCc3cccc(-n4cc(Cl)c5c(N)ncnc54)n3)cc2n1 [Compound I-84]	0.01 to 0.1 µM	> 1 µM	> 1 µM	> 1 µM
CNc1ccc2ccc(OCc3ccnc(-n4cc(Cl)c5c(N)ncnc54)c3)cc2n1 [Compound I-85]	0.1 to 1 µM	> 1 µM	> 1 µM	> 1 µM
